Test results: ChEMBL document CHEMBL1909294, “Translating clinical findings into knowledge in drug safety evaluation--drug induced liver injury prediction system (DILIps)” (PLoS Comput Biol, 2011)

Legend:
Hepatotoxicity [1] = system: Hepatotoxicity;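 on HepSE Combined Scores: combined hepatic side effect score as listed in the training data of the Drug Induced Liver Injury Prediction System (DILIps)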;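 on HepSE bilirubinemia: bilirubinemia hepatic side effect score drawn from the DILIps training data, a prediction system for drug-induced liver injury; call rule not given here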;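 on HepSE cirrhosis: cirrhosis hepatic side effect score taken from the DILIps (drug-induced liver injury prediction) training set; call rule not given here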;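 on HepSE elevated liver function tests: hepatic side effect score for raised liver function tests, as recorded in the DILIps training set used for predicting drug-induced liver injury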;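 on HepSE hepatomegaly: hepatic side effect score for hepatomegaly, taken from the training set of the DILIps drug-induced liver injury prediction system; call rule not given here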; on HepSE liver disease: call rule not given here;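 on HepSE liver fatty: hepatic side effect score for fatty liver, taken from the DILIps training set for predicting drug-induced liver injury; call rule not given here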
Hepatotoxicity [2] = system: Hepatotoxicity; remark: listed apart in the source;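 on HepSE Combined Scores: combined hepatic side effect score as listed in the training data of the Drug Induced Liver Injury Prediction System (DILIps)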;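 on HepSE bilirubinemia: bilirubinemia hepatic side effect score drawn from the DILIps training data, a prediction system for drug-induced liver injury; call rule not given here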;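 on HepSE cirrhosis: cirrhosis hepatic side effect score taken from the DILIps (drug-induced liver injury prediction) training set; call rule not given here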;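 on HepSE elevated liver function tests: hepatic side effect score for raised liver function tests, as recorded in the DILIps training set used for predicting drug-induced liver injury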;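 on HepSE hepatomegaly: hepatic side effect score for hepatomegaly, taken from the training set of the DILIps drug-induced liver injury prediction system; call rule not given here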; on HepSE liver disease: call rule not given here;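 on HepSE liver fatty: hepatic side effect score for fatty liver, taken from the DILIps training set for predicting drug-induced liver injury; call rule not given here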
Hepatotoxicity [3] = system: Hepatotoxicity; remark: listed apart in the source;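 on HepSE Combined Scores: combined hepatic side effect score as listed in the training data of the Drug Induced Liver Injury Prediction System (DILIps)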;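 on HepSE bilirubinemia: bilirubinemia hepatic side effect score drawn from the DILIps training data, a prediction system for drug-induced liver injury; call rule not given here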;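 on HepSE elevated liver function tests: hepatic side effect score for raised liver function tests, as recorded in the DILIps training set used for predicting drug-induced liver injury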;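 on HepSE hepatomegaly: hepatic side effect score for hepatomegaly, taken from the training set of the DILIps drug-induced liver injury prediction system; call rule not given here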; on HepSE liver disease: call rule not given here;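 on HepSE liver fatty: hepatic side effect score for fatty liver, taken from the DILIps training set for predicting drug-induced liver injury; call rule not given here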
Hepatotoxicity [4] = system: Hepatotoxicity; remark: listed apart in the source;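 on HepSE Combined Scores: combined hepatic side effect score as listed in the training data of the Drug Induced Liver Injury Prediction System (DILIps)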;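 on HepSE bilirubinemia: bilirubinemia hepatic side effect score drawn from the DILIps training data, a prediction system for drug-induced liver injury; call rule not given here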;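 on HepSE elevated liver function tests: hepatic side effect score for raised liver function tests, as recorded in the DILIps training set used for predicting drug-induced liver injury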;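 on HepSE hepatomegaly: hepatic side effect score for hepatomegaly, taken from the training set of the DILIps drug-induced liver injury prediction system; call rule not given here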; on HepSE liver disease: call rule not given here;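 on HepSE liver fatty: hepatic side effect score for fatty liver, taken from the DILIps training set for predicting drug-induced liver injury; call rule not given here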
Hepatotoxicity [5] = system: Hepatotoxicity; remark: listed apart in the source; on HepSE liver disease: call rule not given here
Hepatotoxicity [6] = system: Hepatotoxicity; remark: listed apart in the source; on HepSE liver disease: call rule not given here
Hepatotoxicity [7] = system: Hepatotoxicity; remark: listed apart in the source
Hepatotoxicity [8] = system: Hepatotoxicity; remark: listed apart in the source
Hepatotoxicity [9] = system: Hepatotoxicity; remark: listed apart in the source
Hepatotoxicity [10] = system: Hepatotoxicity; remark: listed apart in the source
Hepatotoxicity [11] = system: Hepatotoxicity; remark: listed apart in the source
Hepatotoxicity [12] = system: Hepatotoxicity; remark: listed apart in the source
Hepatotoxicity [13] = system: Hepatotoxicity; remark: listed apart in the source
Hepatotoxicity [14] = system: Hepatotoxicity; remark: listed apart in the source

SMILES | HepSE_elevated liver function tests (Hepatotoxicity [1]) | HepSE_liver fatty (Hepatotoxicity [2]) | HepSE_liver disease (Hepatotoxicity [3]) | HepSE_hepatomegaly (Hepatotoxicity [4]) | HepSE_bilirubinemia (Hepatotoxicity [5]) | HepSE_hepatitis (Hepatotoxicity [6]) | HepSE_Combined Scores (Hepatotoxicity [7]) | HepSE_hepatic necrosis (Hepatotoxicity [8]) | HepSE_cirrhosis (Hepatotoxicity [9]) | HepSE_hepatic failure (Hepatotoxicity [10]) | HepSE_cholelithiasis (Hepatotoxicity [11]) | HepSE_cholecystitis (Hepatotoxicity [12]) | HepSE_liver function tests abnormal (Hepatotoxicity [13]) | HepSE_jaundice (Hepatotoxicity [14])
O=c1[nH]cc(F)c(=O)[nH]1 [FLUOROURACIL] | 0 | 0 | 0 | 0 | 0 | 0 | 0 | 0 | 0 | 0 | 0 | 0 | 0 | 0
CNCCC(Oc1ccc(C(F)(F)F)cc1)c1ccccc1 (stereo unspecified) [FLUOXETINE] | 0 | 1 | 0 | 1 | 0 | 1 | 8 | 0 | 0 | 1 | 1 | 1 | 1 | 1
C[C@]1(O)CC[C@H]2[C@@H]3CCC4=CC(=O)CC[C@]4(C)[C@@]3(F)[C@@H](O)C[C@@]21C [FLUOXYMESTERONE] | 0 | 0 | 0 | 0 | 0 | 0 | 1 | 0 | 0 | 0 | 0 | 0 | 0 | 1
OCCN1CCN(CCCN2c3ccccc3Sc3ccc(C(F)(F)F)cc32)CC1 [FLUPHENAZINE] | 0 | 0 | 0 | 0 | 0 | 1 | 2 | 0 | 0 | 0 | 0 | 0 | 0 | 1
CC1(C)O[C@@H]2C[C@H]3[C@@H]4C[C@H](F)C5=CC(=O)CC[C@]5(C)[C@H]4[C@@H](O)C[C@]3(C)[C@]2(C(=O)CO)O1 [FLURANDRENOLIDE] | 0 | 0 | 0 | 0 | 0 | 0 | 0 | 0 | 0 | 0 | 0 | 0 | 0 | 0
CCN(CC)CCN1C(=O)CN=C(c2ccccc2F)c2cc(Cl)ccc21 [FLURAZEPAM] | 0 | 0 | 0 | 0 | 0 | 0 | 0 | 0 | 0 | 0 | 0 | 0 | 0 | 0
CC(C(=O)O)c1ccc(-c2ccccc2)c(F)c1 (stereo unspecified) [FLURBIPROFEN] | 0 | 0 | 0 | 0 | 0 | 1 | 4 | 0 | 0 | 1 | 0 | 1 | 0 | 1
CC(C)C(=O)Nc1ccc([N+](=O)[O-])c(C(F)(F)F)c1 [FLUTAMIDE] | 0 | 0 | 0 | 0 | 0 | 1 | 3 | 1 | 0 | 0 | 0 | 0 | 0 | 1
C[C@@H]1C[C@H]2[C@@H]3C[C@H](F)C4=CC(=O)C=C[C@]4(C)[C@@]3(F)[C@@H](O)C[C@]2(C)[C@@]1(O)C(=O)SCF [FLUTICASONE] | 0 | 0 | 0 | 0 | 0 | 0 | 1 | 0 | 0 | 0 | 0 | 1 | 0 | 0
